# The source made the active and inactive calls. No cut-off for these calls is given here.
# Key:
# [1] = tested on: SH-SY5Y; assay: Neuroprotective activity against Cu2+-mediated amyloid beta (1 to 42) (unknown origin)-induced cytotoxicity in human SH-SY5Y cells assessed as increase in cell viability at 2 uM measured after 24 hrs by MTT assay; assay type: functional, cell-based
# [2] = Disaggregation of Cu2+ induced human HFIP-pretreated amyloid beta (1 to 42) preformed fibrils at 40 uM measured after 24 hrs by ThT-based fluorescence assay relative to control
# [3] = Inhibition of Cu2+-induced HFIP pretreated human amyloid beta (1 to 42) aggregation at 40 uM measured after 24 hrs by ThT-based fluorescence assay relative to control
# [4] = molecular target: T1, Glycogen synthase kinase-3 beta (Homo sapiens, UniProt P49841); assay: Inhibition of GSK-3beta (unknown origin) using FAM-labeled peptide as substrate preincubated for 10 mins followed by substrate addition by caliper assay
# Target sequence in this assay (P49841 whole entry): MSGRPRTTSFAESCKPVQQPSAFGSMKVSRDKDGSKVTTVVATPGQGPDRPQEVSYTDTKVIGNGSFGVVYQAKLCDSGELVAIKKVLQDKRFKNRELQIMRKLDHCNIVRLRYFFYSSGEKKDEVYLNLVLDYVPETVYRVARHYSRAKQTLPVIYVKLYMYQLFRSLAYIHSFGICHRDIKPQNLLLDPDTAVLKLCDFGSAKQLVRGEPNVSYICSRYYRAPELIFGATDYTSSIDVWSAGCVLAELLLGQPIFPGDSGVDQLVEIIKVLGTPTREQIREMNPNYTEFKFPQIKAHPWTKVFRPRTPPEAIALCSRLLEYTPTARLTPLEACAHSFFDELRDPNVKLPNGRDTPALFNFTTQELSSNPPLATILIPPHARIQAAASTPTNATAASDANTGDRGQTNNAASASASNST
# [5] = molecular target: Amyloid-beta precursor protein (Homo sapiens) (UniProt P05067); assay: Disaggregation of HFIP-pretreated human amyloid beta (1 to 42) preformed fibrils at 40 uM after 24 hrs by ThT-based fluorometric method relative to control
# Sequence of Amyloid-beta precursor protein (Homo sapiens) (P05067 whole entry): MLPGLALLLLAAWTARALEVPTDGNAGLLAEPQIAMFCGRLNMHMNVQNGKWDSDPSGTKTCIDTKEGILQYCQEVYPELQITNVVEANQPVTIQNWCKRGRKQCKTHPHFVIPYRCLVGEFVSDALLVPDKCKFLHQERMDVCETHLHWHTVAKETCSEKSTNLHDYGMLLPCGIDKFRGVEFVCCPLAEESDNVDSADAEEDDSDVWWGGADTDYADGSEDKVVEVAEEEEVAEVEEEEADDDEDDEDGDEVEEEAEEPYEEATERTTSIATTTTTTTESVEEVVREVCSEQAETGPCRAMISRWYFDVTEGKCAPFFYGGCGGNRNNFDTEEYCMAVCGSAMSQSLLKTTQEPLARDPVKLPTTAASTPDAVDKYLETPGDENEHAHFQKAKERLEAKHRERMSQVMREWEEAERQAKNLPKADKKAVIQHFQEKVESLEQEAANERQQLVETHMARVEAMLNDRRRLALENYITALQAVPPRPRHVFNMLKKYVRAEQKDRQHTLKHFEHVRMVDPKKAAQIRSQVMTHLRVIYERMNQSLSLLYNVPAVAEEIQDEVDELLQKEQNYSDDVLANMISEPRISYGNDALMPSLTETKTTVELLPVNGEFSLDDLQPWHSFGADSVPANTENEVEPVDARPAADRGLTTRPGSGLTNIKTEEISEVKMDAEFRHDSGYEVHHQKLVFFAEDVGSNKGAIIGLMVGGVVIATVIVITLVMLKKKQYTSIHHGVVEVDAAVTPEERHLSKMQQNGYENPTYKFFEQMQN
# [6] = tested on: SH-SY5Y; assay: Neuroprotective activity against amyloid beta (1 to 42) (unknown origin)-induced cytotoxicity in SH-SY5Y cells assessed as cell viability at 2 uM measured after 24 hrs by MTT assay (reference value: 78%); assay type: functional; settings: Homo sapiens
# [7] = molecular target: T1, Glycogen synthase kinase-3 beta; assay: Inhibition of GSK3bbeta in human SH-SY5Y cells assessed as reduction in human amyloid beta (25 to 35) peptide-induced tau hyperphosphorylation at Ser396 residue at […] preincubated for 1 hr followed by amyloid beta-stimulation and measured after 6 hrs by Western blot analysis; assay type: cell-based
# Target sequence in this assay (P49841 whole entry, looked up): as the sequence (P49841 whole entry) above
# [8] = Metal chelating activity assessed as compound-Cu2+ complex formation at 20 uM in presence of CuCl2 after 30 mins by UV-visible spectrophotometric analysis
# [9] = molecular target: T1, Glycogen synthase kinase-3 beta; assay: Inhibition of GSK-3beta (unknown origin) at 1 uM using FAM-labeled peptide as substrate preincubated for 10 mins followed by substrate addition by caliper assay relative to control
# Target sequence in this assay (P49841 whole entry, looked up): as the sequence (P49841 whole entry) above
# [10] = Metal chelating activity assessed as compound-Zn2+ complex formation at 20 uM in presence of ZnCl2 after 30 mins by UV-visible spectrophotometric analysis
# [11] = Metal chelating activity assessed as compound-Al3+ complex formation at 20 uM in the presence of AlCl3 after 30 mins by UV-visible spectrophotometric analysis
# [12] = Metal chelating activity assessed as K+-compound complex formation at 20 uM in the presence of KCl after 30 mins by UV-vis spectrophotometric analysis
# [13] = Metal chelating activity assessed as compound-Mg2+ complex formation at 20 uM in the presence of MgCl2 after 30 mins by UV-visible spectrophotometric analysis
# [14] = Metal chelating activity assessed as compound-Cu2+ complex formation by measuring shift in maximum absorption wavelength at 20 uM in presence of CuCl2 after 30 mins by UV-visible spectrophotometric analysis (reference value: 327 nanometer)
# [15] = Metal chelating activity assessed as Na+-compound complex formation at 20 uM in the presence of NaCl after 30 mins by UV-vis spectrophotometric analysis
# [16] = Metal chelating activity assessed as compound-Ca2+ complex formation at 20 uM in the presence of CaCl2 after 30 mins by UV-visible spectrophotometric analysis
# [17] = Metal chelating activity assessed as compound-Fe2+ complex formation at 20 uM in the presence of FeSO4 after 30 mins by UV-visible spectrophotometric analysis
# [18] = tested on: PC-12; assay: Cytotoxicity against rat PC12 cells measured after 24 hrs by MTT assay; assay type: cell-based; settings: PC-12, 24 h
# [19] = Potency index, ratio of trolox IC50 to test compound IC50 for ABTS radical scavenging activity; assay type: functional
# [20] = Metal chelating activity assessed as inhibition of Cu(II)/ascorbate-induced ROS production by measuring fluorescence intensity at 100 uM measured at 20 secs interval for 1000 secs by fluorescence assay (reference value: 10 to 52)
# [21] = Antioxidant activity assessed as ABTS radical scavenging activity incubated for 6 mins; assay type: functional
# [22] = tested on: SH-SY5Y; assay: Neuroprotective activity against H2O2-induced oxidative damage in human SH-SY5Y cells assessed as increase in cell viability measured after 24 hrs by MTT assay; assay type: functional, cell-based
# [23] = molecular target: Amyloid-beta precursor protein (Homo sapiens) (UniProt P05067); assay: Inhibition of human HFIP-pretreated amyloid beta (1 to 42) self aggregation at 40 uM after 24 hrs by ThT-based fluorometric method relative to control
# [24] = molecular target: T1, Glycogen synthase kinase-3 beta; assay: Inhibition of GSK3bbeta in human SH-SY5Y cells assessed as reduction in human amyloid beta (25 to 35) peptide-induced tau hyperphosphorylation at Ser396 residue at 25 uM preincubated for 1 hr followed by amyloid beta-stimulation and measured after 6 hrs by Western blot analysis relative to control; assay type: cell-based
# Target sequence in this assay (P49841 whole entry, looked up): as the sequence (P49841 whole entry) above
# [25] = molecular target: T1, Glycogen synthase kinase-3 beta; assay: Inhibition of GSK3bbeta in human SH-SY5Y cells assessed as reduction in human amyloid beta (25 to 35) peptide-induced tau hyperphosphorylation at Ser396 residue preincubated for 1 hr followed by amyloid beta-stimulation and measured after 6 hrs by Western blot analysis; assay type: cell-based
# Target sequence in this assay (P49841 whole entry, looked up): as the sequence (P49841 whole entry) above
# [26] = tested on: SH-SY5Y; assay: Cytotoxicity against human SH-SY5Y cells at 2 uM in the presence of CuCl2 measured after 24 hrs by MTT assay; assay type: cell-based
# [27] = tested on: PC-12; assay: Neuroprotective activity against H2O2-induced oxidative damage in rat PC12 cells assessed as cell viability at 10 uM measured after 24 hrs by MTT assay relative to control; assay type: functional; settings: PC-12, 24 h, read-out: Activity
# [28] = tested on: SH-SY5Y; assay: Neuroprotective activity against H2O2-induced oxidative damage in human SH-SY5Y cells assessed as cell viability at 10 uM measured after 24 hrs by MTT assay relative to control; assay type: functional; settings: read-out: Activity
# [29] = tested on: SH-SY5Y; assay: Cytotoxicity against human SH-SY5Y cells measured after 24 hrs by MTT assay; assay type: cell-based
# [30] = Metal chelating activity assessed as compound-Al3+ complex formation by measuring blue shift in maximum absorption at 20 uM in the presence of AlCl3 after 30 mins by UV-visible spectrophotometric analysis (reference value: 407 nanometer)
# [31] = Metal chelating activity assessed as compound-Cu2+ complex formation by measuring blue shift in maximum absorption at 20 uM in presence of CuCl2 after 30 mins by UV-visible spectrophotometric analysis (reference value: 244 nanometer)
# [32] = Metal chelating activity assessed as compound-Cu2+ complex formation by measuring shift in maximum absorption wavelength at 20 uM in presence of CuCl2 after 30 mins by UV-visible spectrophotometric analysis (reference value: 338 nanometer)
# [33] = Metal chelating activity assessed as compound-Cu2+ complex formation by measuring shift in maximum absorption wavelength at 20 uM in presence of CuCl2 after 30 mins by UV-visible spectrophotometric analysis (reference value: 311 nanometer)
# [34] = Metal chelating activity assessed as compound-Cu2+ complex formation by measuring shift in maximum absorption wavelength at 20 uM in presence of CuCl2 after 30 mins by UV-visible spectrophotometric analysis (reference value: 326 nanometer)
structure (smiles),measurement,setting,value
Oc1c(I)cc(Cl)c2cccnc12,Activity,[1],Active
same,Activity,[2],34.9%
same,inhibition,[3],38.8%
Nc1ncc(-c2ccc(F)cc2)cc1/N=C/c1ccnc(NC(=O)C2CC2)c1,IC50,[4],418 nM
Nc1nccc(-c2ccc(Cl)cc2)c1/N=C/c1ccnc(NC(=O)C2CC2)c1,IC50,[4],> 2000 nM
COc1cc(/C=C/C(=O)CC(=O)/C=C/c2ccc(O)c(OC)c2)ccc1O [CURCUMIN],Activity,[5],43%
same,viability at 2 µM,[6]; read-out: Activity,88%
[Cl-].[Li+],inhibition,[7],Active
Cc1csc(-c2cnc(N)c(NC(=O)c3ccnc(NC(=O)C4CC4)c3)c2)c1,Activity,[8],inactive
same,inhibition,[9],102%
same,IC50,[4],219 nM
same,Activity,[10],inactive
same,Activity,[11],inactive
Cc1ccc(-c2cnc(N)c(NCc3ccnc(NC(=O)C4CC4)c3)c2)cc1,Activity,[12],inactive
same,inhibition,[9],28%
same,Activity,[10],inactive
same,Activity,[13],inactive
same,Activity,[11],inactive
same,Activity,[14],422 nm
same,Activity,[15],inactive
same,Activity,[16],inactive
same,Activity,[17],inactive
Nc1ncccc1/N=C/c1ccnc(NC(=O)C2CC2)c1,Activity,[8],inactive
same,IC50,[18],152000 nM
same,Activity,[12],inactive
same,Ratio IC50,[19],2 to 4
same,Activity,[1],Active
same,Flu intensity,[20],22 to 40
same,Activity,[5],inactive
same,Activity,[2],42.5%
same,IC50,[21],3880 nM
same,Activity,[22],Dose-dependent effect
same,IC50,[4],71 nM
same,inhibition,[23],inactive
same,inhibition,[24],< 50%
same,inhibition,[25],Dose-dependent effect
same,inhibition,[3],24.3%
same,Activity,[6],inactive
same,Activity,[10],inactive
same,Activity,[13],inactive
same,Activity,[26],Non-Toxic
same,viability at 10 µM,[27],72.6%
same,Activity,[11],inactive
same,Activity,[15],inactive
same,viability at 10 µM,[28],92.1%
same,Activity,[16],inactive
same,IC50,[29],> 200000 nM
same,Activity,[17],inactive
Nc1ncc(-c2ccncc2)cc1/N=C/c1ccnc(NC(=O)C2CC2)c1,IC50,[18],161000 nM
same,Activity,[12],inactive
same,Ratio IC50,[19],2 to 4
same,Activity,[1],Active
same,Flu intensity,[20],33 to 54
same,Activity,[5],inactive
same,Activity,[30],378 nm
same,Activity,[2],50.9%
same,IC50,[21],3440 nM
same,Activity,[22],Dose-dependent effect
same,Activity,[31],241 nm
same,IC50,[4],38 nM
same,inhibition,[23],inactive
same,inhibition,[24],< 50%
same,inhibition,[25],Dose-dependent effect
same,inhibition,[3],33.8%
same,Activity,[6],inactive
same,Activity,[10],inactive
same,Activity,[13],inactive
same,Activity,[26],Non-Toxic
same,viability at 10 µM,[27],76.4%
same,Activity,[15],inactive
same,viability at 10 µM,[28],92%
same,Activity,[16],inactive
same,IC50,[29],> 200000 nM
same,Activity,[17],inactive
Cc1csc(-c2cnc(N)c(NCc3ccnc(NC(=O)C4CC4)c3)c2)c1,Activity,[12],inactive
same,inhibition,[9],17%
same,Activity,[32],440 nm
same,Activity,[10],inactive
same,Activity,[13],inactive
same,Activity,[11],inactive
same,Activity,[15],inactive
same,Activity,[16],inactive
same,Activity,[17],inactive
Nc1ncccc1NC(=O)c1ccnc(NC(=O)C2CC2)c1,Activity,[8],inactive
same,inhibition,[9],77%
same,IC50,[4],629 nM
same,Activity,[10],inactive
same,Activity,[11],inactive
Nc1nccc(-c2ccc(F)cc2)c1/N=C/c1ccnc(NC(=O)C2CC2)c1,IC50,[4],1200 nM
Nc1ncccc1NCc1ccnc(NC(=O)C2CC2)c1,Activity,[12],inactive
same,Activity,[33],402 nm
same,inhibition,[9],33%
same,Activity,[10],inactive
same,Activity,[13],inactive
same,Activity,[11],inactive
same,Activity,[15],inactive
same,Activity,[16],inactive
same,Activity,[17],inactive
Nc1ncc(-c2ccc(F)cc2)cc1NC(=O)c1ccnc(NC(=O)C2CC2)c1,Activity,[8],inactive
same,inhibition,[9],95%
same,IC50,[4],240 nM
same,Activity,[10],inactive
same,Activity,[11],inactive
Nc1ncc(-c2ccncc2)cc1NC(=O)c1ccnc(NC(=O)C2CC2)c1,Activity,[8],inactive
same,inhibition,[9],99%
same,IC50,[4],199 nM
same,Activity,[10],inactive
same,Activity,[11],inactive
Nc1nccc(-c2cccc(F)c2)c1/N=C/c1ccnc(NC(=O)C2CC2)c1,IC50,[4],891 nM
Cc1ccc(-c2ccnc(N)c2/N=C/c2ccnc(NC(=O)C3CC3)c2)cc1,IC50,[4],1250 nM
Cc1c(C)c2c(c(C)c1O)CCC(C)(C(=O)O)O2 (stereo not drawn) [TROLOX],IC50,[21],14300 nM
same,viability at 10 µM,[27],79%
same,viability at 10 µM,[28],90%
Cc1ccc(-c2cnc(N)c(/N=C/c3ccnc(NC(=O)C4CC4)c3)c2)cc1,IC50,[4],372 nM
Nc1ncc(-c2ccccc2)cc1NC(=O)c1ccnc(NC(=O)C2CC2)c1,Activity,[8],inactive
same,inhibition,[9],98%
same,IC50,[4],148 nM
same,Activity,[10],inactive
same,Activity,[11],inactive
Cc1csc(-c2cnc(N)c(/N=C/c3ccnc(NC(=O)C4CC4)c3)c2)c1,IC50,[4],315 nM
Nc1nccc(-c2ccccc2)c1/N=C/c1ccnc(NC(=O)C2CC2)c1,IC50,[4],633 nM
Nc1ncc(-c2ccccc2)cc1NCc1ccnc(NC(=O)C2CC2)c1,Activity,[34],422 nm
same,Activity,[12],inactive
same,inhibition,[9],27%
same,Activity,[10],inactive
same,Activity,[13],inactive
same,Activity,[11],inactive
same,Activity,[15],inactive
same,Activity,[16],inactive
same,Activity,[17],inactive
Cc1ccc(-c2cnc(N)c(NC(=O)c3ccnc(NC(=O)C4CC4)c3)c2)cc1,Activity,[8],inactive
same,inhibition,[9],99%
same,IC50,[4],127 nM
same,Activity,[10],inactive
same,Activity,[11],inactive
Nc1ncc(-c2ccncc2)cc1NCc1ccnc(NC(=O)C2CC2)c1,Activity,[12],inactive
same,inhibition,[9],27%
same,Activity,[10],inactive
same,Activity,[13],inactive
same,Activity,[11],inactive
same,Activity,[15],inactive
same,Activity,[16],inactive
same,Activity,[17],inactive

# — ChEMBL document CHEMBL4340509, “Synthesis and evaluation of novel GSK-3β inhibitors as multifunctional agents against Alzheimer's disease” (Eur J Med Chem, 2019)
